Measurements as given in patent US20030199523A1, “Heterocyclic calcium in channel blockers” (priority 2002, published 2003).

What was measured:
Assay type in all cases: cell-based
[1] = target: T1, P/Q-type channels (α1A+α2δ+β1b) (Homo sapiens, UniProt O00555); test: Whole cell patch clamp block of P/Q-type calcium channels transiently expressed in HEK 293 cells; conditions: step to +20 mV from holding potential −80 mV, 0.1 Hz, 5 mM barium external solution
T1 construct: expressed in transfected cells; host or cells: HEK 293 (transient)
Method: (§1) The method of Example 1 was followed with slight modifications as will be apparent from the description below.
(§2) N-type calcium channel blocking activity was assayed in human embryonic kidney cells, HEK 293, stably transfected with the rat brain N-type calcium channel subunits (α1B+α2δ+β1b cDNA subunits). Alternatively, N-type calcium channels (α1B+α2δ+β1b cDNA subunits), L-type channels (α1C+α2δ+β1b cDNA subunits) and P/Q-type channels (α1A+α2δ+β1b cDNA subunits) were transiently expressed in HEK 293 cells. Briefly, cells were cultured in Dulbecco's modified eagle medium (DMEM) supplemented with 10% fetal bovine serum, 200 U/ml penicillin and 0.2 mg/ml streptomycin at 37° C. with 5% CO2. At 85% confluency cells were split with 0.25% trypsin/1 mM EDTA and plated at 10% confluency on glass coverslips. At 12 hours the medium was replaced and the cells transiently transfected using a standard calcium phosphate protocol and the appropriate calcium channel cDNAs. Fresh DMEM was supplied and the cells transferred to 28° C./ 5% CO2. Cells were incubated for 1 to 2 days to whole cell recording.
(§3) Whole cell patch clamp experiments were performed using an Axopatch 200B amplifier (Axon Instruments, Burlingame, Calif.) linked to a personal computer equipped with pCLAMP software. […] Data were analyzed using Clampfit (Axon Instruments) and SigmaPlot 4.0 (Jandel Scientific).

[2] = target: T2, L-type channels (α1C+α2δ+β1b) (Homo sapiens, UniProt Q13936); test: Whole cell patch clamp block of L-type calcium channels transiently expressed in HEK 293 cells; conditions: step to +20 mV from holding potential −80 mV, 0.1 Hz, 5 mM barium external solution
T2 construct: expressed in transfected cells; host or cells: HEK 293 (transient)
Method: as §1, §2, §3

[3] = target: T3, rat brain N-type calcium channel (α1B+α2δ+β1b) (Rattus norvegicus, UniProt Q02294); test: Whole cell patch clamp block of N-type calcium channels expressed in HEK 293 cells; conditions: step to +20 mV from holding potential −80 mV, 0.1 Hz, 5 mM barium external solution
T3 construct: expressed in transfected cells
Method: (§4) Antagonist activity was measured using whole cell patch recordings on human embryonic kidney cells either stably or transiently expressing rat α1B+α2b+β1b channels (N-type channels) with 5 mM barium as a charge carrier.
(§5) For transient expression, host cells, such as human embryonic kidney cells, HEK 293 (ATCC# CRL 1573) were grown in standard DMEM medium supplemented with 2 mM glutamine and 10% fetal bovine serum. HEK 293 cells were transfected by a standard calcium-phosphate-DNA coprecipitation method using the rat α1B+β1b+α2δ N-type calcium channel subunits in a vertebrate expression vector (for example, see Current Protocols in Molecular Biology).
(§6) After an incubation period of from 24 to 72 hrs the culture medium was removed and replaced with external recording solution (see below). Whole cell patch clamp experiments were performed using an Axopatch 200B amplifier (Axon Instruments, Burlingame, Calif.) linked to an IBM compatible personal computer equipped with pCLAMP software. Borosilicate glass patch pipettes (Sutter Instrument Co., Novato, Calif.) were polished (Microforge, Narishige, Japan) to a resistance of about 4 MΩ when filled with cesium methanesulfonate internal solution (composition in MM: 109 CsCH3SO4, 4 MgCl2, 9 EGTA, 9 HEPES, pH 7.2). Cells were bathed in 5 mM Ba^++ (in mM: 5 BaCl2, 1 MgCl2, 10 HEPES, 40 tetraethylammonium chloride, 10 glucose, 87.5 CsCl pH 7.2). Current data shown were elicited by a train of 100 ms test pulses at 0.066 Hz from −100 mV and/or −80 mV to various potentials (min. −20 mV, max. +30 mV). Drugs were perfused directly into the vicinity of the cells using a microperfusion system.
(§7) Normalized dose-response curves were fit (Sigmaplot 4.0, SPSS Inc., Chicago, Ill.) by the Hill equation to determine IC50 values. Steady-state inactivation curves were plotted as the normalized test pulse amplitude following 5 s inactivating prepulses at +10 mV increments. Inactivation curves were fit (Sigmaplot 4.0) with the Boltzman equation, Ipeak (normalized)=1/(1+exp((V−Vh)z/25.6)), where V and Vh are the conditioning and half inactivation potentials, respectively, and z is the slope factor.
as §1
(§8) N-type calcium channel blocking activity was assayed in human embryonic kidney cells, HEK 293, stably transfected with the rat brain N-type calcium channel subunits (α1B+α2δ+β1b cDNA subunits). Alternatively, N-type calcium channels (α1B+α2δ+β1b cDNA subunits), L-type channels (α1C+α2δ+β1b cDNA subunits) and P/Q-type channels (α1A+α2δ+β1b cDNA subunits) were transiently expressed in HEK 293 cells. […]

[4] = tested on: rat brain N-type calcium channel (α1B+α2δ+β1b); test: as above; conditions: N-type, L-type and P/Q-type channels compared
Method: as §4, §5, §6, §7, §1, §8

T3 sequence (Q02294 whole entry): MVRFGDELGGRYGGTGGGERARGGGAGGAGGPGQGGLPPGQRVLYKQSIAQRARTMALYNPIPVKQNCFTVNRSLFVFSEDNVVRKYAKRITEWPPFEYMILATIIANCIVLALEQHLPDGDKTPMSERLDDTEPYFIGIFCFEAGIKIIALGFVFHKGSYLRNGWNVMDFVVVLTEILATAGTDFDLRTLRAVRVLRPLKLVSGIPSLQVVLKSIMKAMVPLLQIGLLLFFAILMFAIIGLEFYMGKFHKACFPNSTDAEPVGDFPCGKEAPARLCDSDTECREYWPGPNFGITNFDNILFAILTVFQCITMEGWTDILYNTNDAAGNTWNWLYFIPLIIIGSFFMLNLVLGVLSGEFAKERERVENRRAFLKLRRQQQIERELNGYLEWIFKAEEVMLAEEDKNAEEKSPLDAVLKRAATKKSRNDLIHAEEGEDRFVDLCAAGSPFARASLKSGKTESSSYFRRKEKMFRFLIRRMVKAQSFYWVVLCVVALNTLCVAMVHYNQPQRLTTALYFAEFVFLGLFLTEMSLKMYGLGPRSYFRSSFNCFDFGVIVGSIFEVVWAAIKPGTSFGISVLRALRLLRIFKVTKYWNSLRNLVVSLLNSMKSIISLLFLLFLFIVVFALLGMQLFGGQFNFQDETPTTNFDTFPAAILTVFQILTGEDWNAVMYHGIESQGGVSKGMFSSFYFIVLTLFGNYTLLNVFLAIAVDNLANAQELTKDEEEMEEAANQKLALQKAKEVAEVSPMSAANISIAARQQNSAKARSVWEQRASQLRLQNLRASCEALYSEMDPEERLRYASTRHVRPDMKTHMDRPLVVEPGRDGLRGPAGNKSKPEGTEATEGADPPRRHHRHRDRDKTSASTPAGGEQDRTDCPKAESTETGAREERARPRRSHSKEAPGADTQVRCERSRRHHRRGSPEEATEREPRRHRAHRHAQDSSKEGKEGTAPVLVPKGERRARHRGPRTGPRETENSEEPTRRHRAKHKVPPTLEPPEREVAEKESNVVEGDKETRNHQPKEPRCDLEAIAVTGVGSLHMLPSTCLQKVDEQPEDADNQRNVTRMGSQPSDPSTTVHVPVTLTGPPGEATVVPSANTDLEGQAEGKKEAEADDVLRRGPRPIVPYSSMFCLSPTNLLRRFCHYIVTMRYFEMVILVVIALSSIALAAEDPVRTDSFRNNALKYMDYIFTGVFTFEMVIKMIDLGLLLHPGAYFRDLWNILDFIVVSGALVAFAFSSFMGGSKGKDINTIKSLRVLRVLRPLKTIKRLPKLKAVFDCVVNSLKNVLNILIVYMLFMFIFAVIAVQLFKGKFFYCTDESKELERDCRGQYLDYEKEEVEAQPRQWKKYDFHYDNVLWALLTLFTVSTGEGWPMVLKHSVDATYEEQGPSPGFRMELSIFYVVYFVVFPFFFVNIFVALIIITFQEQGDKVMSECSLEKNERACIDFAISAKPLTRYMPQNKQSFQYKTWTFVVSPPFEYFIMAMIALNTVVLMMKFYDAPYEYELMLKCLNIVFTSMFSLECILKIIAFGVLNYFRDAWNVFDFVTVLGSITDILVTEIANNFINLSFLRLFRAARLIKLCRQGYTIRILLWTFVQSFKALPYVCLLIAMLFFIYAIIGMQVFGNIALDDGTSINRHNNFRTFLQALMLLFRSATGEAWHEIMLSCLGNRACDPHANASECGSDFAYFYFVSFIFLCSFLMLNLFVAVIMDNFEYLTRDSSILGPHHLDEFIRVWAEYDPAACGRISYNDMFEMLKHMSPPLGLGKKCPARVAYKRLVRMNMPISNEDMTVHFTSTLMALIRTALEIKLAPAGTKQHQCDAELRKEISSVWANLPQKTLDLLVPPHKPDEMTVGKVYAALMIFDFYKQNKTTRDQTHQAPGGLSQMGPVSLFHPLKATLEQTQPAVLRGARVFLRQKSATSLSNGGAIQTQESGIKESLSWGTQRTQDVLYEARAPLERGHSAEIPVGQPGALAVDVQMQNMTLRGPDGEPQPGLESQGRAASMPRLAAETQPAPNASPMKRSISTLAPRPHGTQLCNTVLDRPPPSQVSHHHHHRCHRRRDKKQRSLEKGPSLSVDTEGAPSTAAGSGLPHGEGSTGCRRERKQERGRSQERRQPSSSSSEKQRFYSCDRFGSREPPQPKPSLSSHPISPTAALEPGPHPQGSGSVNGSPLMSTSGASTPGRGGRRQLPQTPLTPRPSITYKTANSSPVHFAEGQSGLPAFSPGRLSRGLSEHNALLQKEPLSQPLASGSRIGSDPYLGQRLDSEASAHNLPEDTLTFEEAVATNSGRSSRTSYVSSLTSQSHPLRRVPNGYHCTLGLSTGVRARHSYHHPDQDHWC
T2 sequence (Q13936 whole entry): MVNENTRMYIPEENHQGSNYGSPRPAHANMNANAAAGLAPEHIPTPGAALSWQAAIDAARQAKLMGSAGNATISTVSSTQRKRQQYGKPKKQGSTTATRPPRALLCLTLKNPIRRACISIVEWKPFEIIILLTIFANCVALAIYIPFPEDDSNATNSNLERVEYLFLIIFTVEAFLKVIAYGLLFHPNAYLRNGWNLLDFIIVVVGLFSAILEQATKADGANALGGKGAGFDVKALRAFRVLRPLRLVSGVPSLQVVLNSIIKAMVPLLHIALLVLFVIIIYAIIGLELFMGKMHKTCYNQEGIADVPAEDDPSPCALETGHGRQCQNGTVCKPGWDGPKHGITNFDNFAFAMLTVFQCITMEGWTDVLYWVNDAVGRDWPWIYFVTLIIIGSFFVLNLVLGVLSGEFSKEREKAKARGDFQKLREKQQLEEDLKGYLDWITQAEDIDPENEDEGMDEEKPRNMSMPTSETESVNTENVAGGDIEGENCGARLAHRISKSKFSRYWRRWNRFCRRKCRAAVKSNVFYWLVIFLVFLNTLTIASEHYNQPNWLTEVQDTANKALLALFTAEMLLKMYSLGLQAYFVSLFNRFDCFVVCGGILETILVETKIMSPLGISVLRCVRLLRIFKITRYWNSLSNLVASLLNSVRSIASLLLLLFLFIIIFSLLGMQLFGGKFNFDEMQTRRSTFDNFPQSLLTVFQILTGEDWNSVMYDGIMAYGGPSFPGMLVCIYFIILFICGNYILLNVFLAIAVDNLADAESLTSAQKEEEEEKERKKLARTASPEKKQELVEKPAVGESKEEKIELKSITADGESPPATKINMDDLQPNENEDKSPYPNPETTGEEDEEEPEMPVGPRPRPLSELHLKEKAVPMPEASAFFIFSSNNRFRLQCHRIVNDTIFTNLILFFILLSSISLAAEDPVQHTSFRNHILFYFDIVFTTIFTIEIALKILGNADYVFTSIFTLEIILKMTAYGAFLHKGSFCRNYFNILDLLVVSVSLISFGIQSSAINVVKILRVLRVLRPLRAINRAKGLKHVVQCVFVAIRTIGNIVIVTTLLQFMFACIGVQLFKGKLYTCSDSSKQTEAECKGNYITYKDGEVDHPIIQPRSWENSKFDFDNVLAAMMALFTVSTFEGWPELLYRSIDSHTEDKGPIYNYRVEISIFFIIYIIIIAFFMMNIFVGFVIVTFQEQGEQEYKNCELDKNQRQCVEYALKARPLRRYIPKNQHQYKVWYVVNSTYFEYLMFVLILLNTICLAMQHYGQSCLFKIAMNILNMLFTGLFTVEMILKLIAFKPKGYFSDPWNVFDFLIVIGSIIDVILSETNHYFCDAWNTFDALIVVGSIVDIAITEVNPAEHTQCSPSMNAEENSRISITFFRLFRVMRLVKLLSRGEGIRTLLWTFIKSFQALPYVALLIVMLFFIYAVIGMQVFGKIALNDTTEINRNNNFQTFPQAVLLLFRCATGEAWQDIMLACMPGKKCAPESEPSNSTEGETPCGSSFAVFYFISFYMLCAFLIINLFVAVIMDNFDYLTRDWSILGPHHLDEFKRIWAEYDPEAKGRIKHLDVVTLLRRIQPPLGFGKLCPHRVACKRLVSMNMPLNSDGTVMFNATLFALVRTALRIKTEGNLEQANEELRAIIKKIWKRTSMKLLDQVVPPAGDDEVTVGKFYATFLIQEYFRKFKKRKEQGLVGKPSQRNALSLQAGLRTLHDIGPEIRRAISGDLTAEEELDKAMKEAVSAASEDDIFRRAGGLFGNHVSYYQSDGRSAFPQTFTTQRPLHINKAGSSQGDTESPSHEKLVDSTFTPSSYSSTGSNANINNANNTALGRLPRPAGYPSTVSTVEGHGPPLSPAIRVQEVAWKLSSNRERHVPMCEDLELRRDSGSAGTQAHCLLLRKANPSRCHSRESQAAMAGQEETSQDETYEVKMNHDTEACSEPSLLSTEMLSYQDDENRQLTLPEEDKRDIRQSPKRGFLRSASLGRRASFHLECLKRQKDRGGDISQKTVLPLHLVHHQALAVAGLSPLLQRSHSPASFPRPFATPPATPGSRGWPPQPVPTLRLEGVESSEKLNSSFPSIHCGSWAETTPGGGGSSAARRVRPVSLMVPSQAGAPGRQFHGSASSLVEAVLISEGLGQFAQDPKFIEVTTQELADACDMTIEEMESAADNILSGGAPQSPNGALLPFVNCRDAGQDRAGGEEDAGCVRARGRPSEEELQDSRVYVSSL

SMILES	IC50 [1] [µM]	IC50 [2] [µM]	IC50 [3] [µM]	selectivity for N-type channels versus L-type and P/Q-type (in words) [4]
O=C(CCOc1ccc(Cl)cc1Cl)Nc1nnc(C(F)(F)F)s1 [NT044, N-2-(5-trifluoromethyl-1,3,4-thiadiazolyl)-3-(2,4-dichlorophenoxy) propionyl amide]	6.4	2.06	0.14	somewhat selective for N-type channels
O=C(COC(c1ccc(Cl)cc1)c1ccc(Cl)cc1)Nc1ncc([N+](=O)[O-])s1 [NT051]	6.8	1.91	0.13	somewhat selective for N-type channels
